Assay results taken from PMC3021963 (ChemMedChem, 2010).

Experiments:
Assay type in all cases: biochemical
MbtI [1] = target: T1, MbtI (Mycobacterium tuberculosis, UniProt P9WFX1); experiment: continuous fluorescence assay of MbtI; conditions: for Fluorescence Assay Hill: Table 1, Hill slope of concentration-response plot
MbtI [2] = target: T1, MbtI; experiment: HPLC end-point assay of MbtI; conditions: for HPLC Assay Hill: Table 1, Hill slope of concentration-response plot
MbtI [3] = target: T1, MbtI
[4] = IC50, Table 2, class II diarylsulfones
[5] = Table 3, class III benzimidazole-2-thiones
[6] = Table 3, class III benzimidazole-2-thiones, synthetically prepared compounds
[7] = Table 2, class II diarylsulfones

T1 sequence (P9WFX1 whole entry, looked up): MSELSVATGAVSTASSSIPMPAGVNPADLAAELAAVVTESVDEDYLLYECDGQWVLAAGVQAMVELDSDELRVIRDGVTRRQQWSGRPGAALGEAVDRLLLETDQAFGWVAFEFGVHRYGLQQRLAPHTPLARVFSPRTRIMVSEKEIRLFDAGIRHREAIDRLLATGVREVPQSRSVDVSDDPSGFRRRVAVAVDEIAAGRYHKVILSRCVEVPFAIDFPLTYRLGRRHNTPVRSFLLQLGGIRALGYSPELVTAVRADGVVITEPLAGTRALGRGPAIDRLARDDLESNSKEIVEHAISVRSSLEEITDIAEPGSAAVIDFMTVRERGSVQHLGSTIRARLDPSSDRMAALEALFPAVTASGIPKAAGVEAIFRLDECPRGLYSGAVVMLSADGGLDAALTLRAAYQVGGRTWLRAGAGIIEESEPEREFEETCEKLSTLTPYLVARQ

## O=S(=O)(NCc1ccccc1)c1cccc(S(=O)(=O)c2ccc(Cl)c(Cl)c2)c1 [Compound 30, N-Benzyl-3-(3,4-dichlorophenylsulfonyl)benzenesulfonamide]
MbtI [1]; [4]
  IC50: > 200 µM

## CC(=O)n1c(=O)[nH]c2ccccc21 [Compound 45, 1-Acetylbenzimidazole-2-one]
MbtI [1]
  MbtI inhibition (in words): completely inactive

## CC(=O)NS(=O)(=O)c1cccc(S(=O)(=O)c2ccc(Cl)c(Cl)c2)c1 [Compound 32, N-[3-(3,4-Dichlorophenylsulfonyl)phenylsulfonyl]acetamide]
MbtI [1]
  MbtI inhibition (in words): completely inactive
MbtI [1]; [4]
  IC50: > 200 µM

## Nc1ccc(S(=O)(=O)c2ccc(N)cc2)cc1 [Compound 33, 4,4′-diaminodiphenylsulfone, reference compound]
MbtI [1]; [4]
  IC50: 118 ± 19 µM

## CC(=O)N1C(=O)Cc2ccccc21 [Compound 43, 1-Acetyl-2-oxindole]
MbtI [1]
  MbtI inhibition (in words): completely inactive

## CC(=O)n1c(=S)[nH]c2cc(C)ccc21 [Compound 41, 1-Acetyl-5/6-methylbenzimidazole-2-thione]
MbtI [1]
  change in potency relative to parent compound 4: no impact on potency was observed
MbtI [1]; [5]
  Hill Slope: 1.20
MbtI [1]; [6]
  IC50: 7.6 ± 0.4 µM

## CC(=O)n1cnc2ccccc21 [Compound 44, 1-Acetylbenzimidazole]
MbtI [1]
  MbtI inhibition (in words): completely inactive

## NS(=O)(=O)c1cccc(S(=O)(=O)c2ccccc2)c1 [Compound 27, 3-(Phenylsulfonyl)benzenesulfonamide]
MbtI [1]
  MbtI inhibition (in words): complete loss of activity
MbtI [1]; [4]
  IC50: > 200 µM

## CC(=O)n1cc[nH]c1=S [Compound 47, 1-Acetylimidazole-2-thione]
MbtI [1]
  MbtI inhibition (in words): abolished all activity

## NS(=O)(=O)c1cccc(S(=O)(=O)c2ccc(Cl)c(Cl)c2)c1 [Compound 8, 3-(3,4-Dichlorophenylsulfonyl)benzenesulfonamide]
MbtI [2]
  IC50: 49.2 ± 11.6 µM
  HPLC Assay Hill: 0.7
MbtI [1]; [4]
  IC50: 35 µM
MbtI [1]
  Fluorescence Assay Hill: 0.85
MbtI [1]; [7]
  Hill Slope: 0.85

## S=c1[nH]c2ccccc2[nH]1 [Compound 34, benzimidazole-2-thione]
MbtI [1]
  change in potency relative to parent compound 4: six- to nine-fold decreases in potency
MbtI [1]; [5]
  Hill Slope: 0.90

## CNS(=O)(=O)c1cccc(S(=O)(=O)c2ccccc2)c1 [Compound 28, N-Methyl-3-(phenylsulfonyl)benzenesulfonamide]
MbtI [1]; [4]
  IC50: > 200 µM

## Cn1c(=S)[nH]c2ccccc21 [Compound 40, N-methylbenzimidazole-2-thione]
MbtI [1]
  change in potency relative to parent compound 4: six- to nine-fold decreases in potency
MbtI [1]; [5]
  Hill Slope: 1.20

## CNS(=O)(=O)c1cccc(S(=O)(=O)c2ccc(Cl)c(Cl)c2)c1 [Compound 29, 3-(3,4-Dichlorophenylsulfonyl)-N-methylbenzenesulfonamide]
MbtI [1]; [4]
  IC50: > 200 µM

## NS(=O)(=O)c1cccc(S(=O)(=O)c2ccc(Cl)cc2)c1 [Compound 26, 3-(4-Chlorophenylsulfonyl)benzenesulfonamide]
MbtI [1]
  MbtI inhibition (in words): complete loss of activity
MbtI [1]; [4]
  IC50: > 200 µM

## O=S(=O)(c1cccc(S(=O)(=O)N2CCOCC2)c1)c1ccc(Cl)c(Cl)c1 [Compound 31, N-[3-(3,4-Dichlorophenylsulfonyl)phenylsulfonyl]morpholine]
MbtI [1]; [7]
  IC50: > 200 µM

## CC(=O)n1c(=S)[nH]c2ccccc21 [Compound 4, 1-Acetylbenzimidazole-2-thione]
MbtI [2]
  IC50: 5.16 ± 0.49 µM
  HPLC Assay Hill: 1.23
MbtI [1]
  Fluorescence Assay Hill: 1.71
MbtI [1]; [5]
  Hill Slope: 1.00
MbtI [3]
  Ki: 9.7 µM
MbtI [3]; noncompetitive inhibition model
  α value: 1
MbtI [3]; with respect to chorismate
  mode of inhibition: noncompetitive inhibition

## CC(=O)n1c(=S)oc2ccccc21 [Compound 42, 1-Acetylbenzoxazole-2-thione]
MbtI [1]
  change in potency relative to parent compound 4: about twofold less potent
MbtI [1]; [5]
  Hill Slope: 1.10
MbtI [1]; [6]
  IC50: 21.8 ± 1.4 µM

## CSc1nc2ccccc2[nH]1 [Compound 46, 2-thiomethylbenzimidazole]
MbtI [1]
  MbtI inhibition (in words): completely inactive
MbtI [1]; [6]
  IC50: > 200 µM
